Measurements taken from article PMC6691385, “Au Hollow Nanorods-Chimeric Peptide Nanocarrier for NIR-II Photothermal Therapy and Real-time Apoptosis Imaging for Tumor Theranostics” (Theranostics, 2019).

How the values were obtained:
HeLa cells = assay: MTT cytotoxicity assay; format: cell-based; conditions: 10 ppm; cells treated with AuHNRs-DTPP and laser
Procedure: The in vitro cytotoxicity of AuHNRs-DTPP nanocarrier against HeLa cells were studied by standard MTT assay. In brief, HeLa cells were seeded on 96-well plates with a density of 5000 cells per well. When the cell density came to 80%, the medium was removed and various concentrations of AuHNRs-DTPP nanocarrier in DMEM with 10% FBS were added. After incubation for 6 h, the medium was replaced by 200 μL of fresh medium. For none-treated group or single laser treated group, cells received corresponding treatment and then further incubated for 48 h. And for combined treatment group, cells received 1064 nm laser irradiation and incubated for 2 h. After that, cells received laser irradiation (633 nm) and then further incubated for 48 h. Then, the standard MTT assay was conducted to determine the cell viability. And for COS-7, same operation process was taken.

Solubility of DTPP = format: physicochemical
[1] = Fluorescence, ROS and singlet oxygen generation, cell-free
H22 tumor = assay: In vivo fluorescence imaging; conditions: tumor bearing mice; i.v.; before laser irradiation, within 8 h
Procedure: Animal experiments were conducted based on the guidelines for laboratory animals established by the Huazhong Agricultural University. In vivo imaging started when tumor volume approximated 200 mm^3. For photothermal imaging 200 μL AuHNRs-DTPP was intravenously injected into the mice, and the equal volume of PBS buffer was taken as the control. Infrared thermal images were recorded by using a FLIR E85 camera under 1064 nm laser irradiation at a power density of 0.69 W·cm^-2. In vivo fluorescence imaging was collected by a Maestro in vivo imaging system. The tumor bearing mice were intravenously administrated with 200 μL AuHNRs-DTPP (1 g·L^-1) or free DTPP (30 mg·L^-1) solution. Then the mice were anesthetized and imaged at pre-set time. It should be noted that mice received 1064 nm laser irradiation (10 min, 0.69 W·cm^-2) at the 8th h post-injection.

solubility in DI water (Solubility of DTPP; DI water) | solubility in PBS (Solubility of DTPP; PBS) | Compound | effect on cell viability as ROS scavenger (HeLa cells) | singlet oxygen ESR signal ([1]; treated with laser) | singlet oxygen ESR signal ([1]; without laser irradiation) | in vivo fluorescence signal (H22 tumor)
– | – | O=C1O[C@H]([C@@H](O)CO)C(O)=C1O [Vitamin C] | significantly improve the cell viability | – | – | –
almost insoluble | good solubility | PpIX-PEG8-GGK(TPP)GRDEVDGC [DTPP] | – | obvious ESR signal | no ESR signal | fluorescence signal appeared all over the body
